# Assay results as given in a melting point compilation (Tetko et al.; mined from patent text by program, amines drawn as free bases though some values may be those of a salt).
row,melting point [°C],Compound
1,104 to 106,O=C(Nc1cccnc1)N1N=CCC1c1ccccc1 (centres undefined)
2,125,CCCCc1[nH]c2ccc([N+](=O)[O-])cc2c1C(=O)c1ccc(OCCCCl)cc1
3,176 to 178,COc1ccc(CC2SC(=O)NC2=O)cc1C(=O)NCc1ccc(C(F)(F)F)cc1 (centres undefined)
4,145 to 147,CCOc1ccc(C2=NNC(=O)[C@H]3CC=CC[C@@H]23)cc1OCC (relative stereo)
5,148 to 150,CCc1[nH]n(C2CCCC2)c2nc(Cc3cccc(OC)c3)nc(=O)c1-2
6,148 to 150,CC(C)Oc1ccc(-n2c(C(=O)O)c(Cl)c3cc(Oc4ccc(C(F)(F)F)cc4)ccc32)cc1
7,203 to 206,COCCc1nc2c(N)nc3cc(OCc4cccc(N)c4)ccc3c2n1CC(C)(C)O
8,68 to 72,CNc1nc(NC)nc(OC(F)(F)F)n1
9,108 to 110,O=C(Oc1c(F)c(F)c(F)c(F)c1F)c1ccc(F)c(F)c1Nc1ccc(I)cc1Cl
10,265 to 267,Cn1ccnc1Sc1ccc(Nc2c(C#N)cnc3cc(N4CCC(N5CCCC5)CC4)c(N)cc23)cc1Cl
11,168 to 170,CCC(=O)NCCC1=C(C(C)C)Cc2cnc3c(c21)CCO3
12,247,O=C1CC(c2cccc(-n3ccnc3)c2)=Nc2cc(O)c(C#Cc3ccc(F)cc3)cc2N1
13,83 to 85,Cc1ccc(Cl)cc1N1CN(C(C)C)CN(C)C1=S
14,114,OCCNCC(O)c1cccc(OCc2ccccc2)c1 (centres undefined)
15,199,N#Cc1cnn2c(C(F)(F)F)cc(-c3cccc(F)c3)nc12
16,194,COC(=O)C1=C(C)NN=C(c2cccs2)C1c1ccccc1 (centres undefined)
17,303 to 305,O=C(O)c1ccc(-c2ccc(I)cc2)cc1
18,97 to 98,CN1CCN(C2(CNC=O)CCCCC2)CC1
19,138 to 140,CC(C)Oc1ccc(/C=C/C(=O)O)c(Oc2ncc(C(F)(F)F)cc2Cl)c1

row,melting point [°C],Compound
1,98 to 100,O=C(O)CN(CC(=O)O)C(=O)c1cc(OCCCCCCOc2ccc(-c3ccccc3)cc2)ccc1OCc1ccccc1
2,100 to 101,COc1cccc(CN2CCC3(CCc4c3n(C)c3ccccc43)CC2)c1
3,167,Clc1ccc(-c2nc3c(c(NC4CCCC4)n2)CCC3)cc1
4,121 to 124,COc1ccc(C)cc1NC(=O)Nc1ccc(N2CCN(C(=O)Nc3cc(OCCO)ccc3Cl)CC2)cc1
5,55 to 63,CCC1(CC)CCSc2c(CC#Cc3ccc(C=O)cc3)cccc21
6,164 to 165,COc1ccc2c(c1)NC(=O)c1ccccc1O2
7,80,COC(=O)C(C)(C)OCC#Cc1cc(Cl)ccc1NS(=O)(=O)c1ccc2nc(NC(C)=O)sc2c1
8,173 to 174,COC(=O)c1ccc(-c2nnc(-c3ccc(C(F)(F)F)cc3)o2)c([N+](=O)[O-])c1
9,94 to 95,Cc1nc(-c2nc(-c3ccc(Cl)cc3)c(CCCCCO)o2)c[nH]1
10,111 to 112,COCc1cccc(-c2coc3ccc(-c4nnc(C)o4)cc23)c1
11,226 to 228,Cn1cc(I)c(=O)n(C)c1=O
12,148 to 152,Cc1cc(C#N)ccc1C1(CC2c3ccccc3Oc3ccccc32)NC(=O)NC1=O (centres undefined)
13,242,COc1ccc(/C=C/c2nc3c(c(=O)n(C)c(=O)n3C)n2C)c(OC)c1
14,74,CCOC(=O)C(C)(C)Oc1ccc(-c2ccc(CCNC(=O)c3cc(OC)cc(OC)c3)cc2)cc1
15,112 to 114,CC(C)(C)OC(=O)N1CCC(CCN2C(=O)c3ccccc3C2=O)CC1
16,190 to 193,Cn1cc(-c2ccccc2)c(=O)c(-c2cccc(I)c2)c1
17,163,CCOC(=O)c1cc2cc([N+](=O)[O-])ccc2s1
18,104 to 105,OCc1ccc(N(c2ccccc2)c2ccccc2)cc1

row,Compound,melting point [°C]
1,CN1Cc2c(-c3ncc(CN4CCCCC4)o3)ncn2-c2ccc(F)cc2C1=O,191 to 193
2,Cn1nnc2c(N3CCNCC3)ncnc21,95 to 96
